# Laboratory results: PubChem BioAssay (NCI)
# “And” between values parts separate entries of the source, which are not always exact repeats. Equal values may be shown once.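 How tested: cells in 96-well plates exposed to compound for 48 hours at five concentrations. Here, GI50 denotes the concentration required for 50% inhibition of growth. TGI marks complete inhibition of growth.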
# Experiments:
# Assay in all cases: NCI-60 cell line screen, 48 h
# [1] = tested on: MDA-MB-435
# [2] = tested on: OVCAR-3 ovarian
# [3] = tested on: SNB-19 CNS
# [4] = tested on: UO-31 renal
# [5] = tested on: NCI/ADR-RES ovarian
# [6] = tested on: SN12C renal
# [7] = tested on: M14 melanoma
# [8] = tested on: SR leukemia
# [9] = tested on: OVCAR-5 ovarian
# [10] = tested on: BT-549 breast
SMILES,GI50 [1] [µM],TGI [1] [µM],GI50 [2],TGI [2],GI50 [3],TGI [3],GI50 [4] [µM],TGI [4],GI50 [5] [µM],TGI [5] [µM],GI50 [6] [µM],TGI [6],GI50 [7] [µM],TGI [7],GI50 [8] [µM],TGI [8] [µM],GI50 [9] [µM],TGI [9],TGI [10] [µM],GI50 [10] [µM]
CC/C=C\C[C@H](O)C/C=C1/C(=O)C=C[C@@H]1C/C=C\CCCC(=O)OCCS(=O)(=O)c1ccccc1,2.51,8.26,3.19 µM,12 µM,5.06 µM,19.4 µM,2.37,6.31 µM,3.43,20.5,3.62,19.1 µM,3.67,13.7 µM,2.87,13.2,12.4,29.5 µM,–,–
CC1=CC[C@@H]2[C@@H](CC[C@@]2(C)O)C(C)(C)[C@H]1CC[C@@H]1[C@@]2(C)CC[C@@H](O)C(C)(C)O[C@@H]2CC[C@]1(C)O,–,57,–,> 100 µM,–,46.2 µM,–,34.3 µM,–,–,–,57.2 µM,–,61.9 µM,–,42.8,–,> 100 µM,44,–
COC(=O)CCC(=O)Nc1cccc(C(F)(F)F)c1,–,–,–,> 100 µM,–,> 100 µM,–,> 100 µM,–,–,–,> 100 µM,–,> 100 µM,–,–,–,> 100 µM,–,–
CN(C(=N)c1ccccc1)c1ccccc1,–,–,–,> 100 µM,–,> 100 µM,–,> 100 µM,–,–,–,> 100 µM,–,> 100 µM,–,–,–,–,–,–
CC(=O)O[C@H]1CC[C@@]2(C)C(=CC[C@@H]3C2CC[C@]2(C)C(=O)NC(=O)CC32)C1 (some centres undefined),–,–,–,–,–,> 100 µM,–,> 100 µM,–,–,–,> 100 µM,–,> 100 µM,–,–,–,> 100 µM,–,–
O=S1(=O)OCc2ccccc21,–,> 100,–,> 100 µM,–,> 100 µM,–,> 100 µM,–,> 100,–,> 100 µM,–,> 100 µM,–,–,–,> 100 µM,> 100,–
Nc1nc2ccccc2c2[nH]c3ccccc3c12,0.938,3.16,1.42 µM,4.37 µM,1.1 µM,3.71 µM,1.31,2.61 µM,–,–,1.24,2.97 µM,1.6,2.95 µM,0.64,4.8,1.84,4.11 µM,2.58,1.26
C=C(c1ccccc1)[C@@]1(O)CCCC[C@H]1NC(c1ccccc1)c1ccccc1,–,–,–,24.7 µM,–,36.7 µM,–,27.6 µM,–,–,–,29 µM,–,27.6 µM,–,6.98,–,27 µM,–,–
C/C(=N\NC(=O)C[n+]1ccccc1)c1sc(-c2nc(C)c(/C(C)=N/NC(=O)C[n+]3ccccc3)s2)nc1C,–,–,–,> 100 µM,–,> 100 µM,–,> 100 µM,–,–,–,> 100 µM,–,> 100 µM,–,–,–,> 100 µM,–,–
COc1ccc(C(=C(C#N)C#N)c2ccc(OC)cc2)cc1,–,–,–,> 100 µM,–,> 100 µM,–,> 100 µM,–,–,–,> 100 µM,–,> 100 µM,–,> 100,–,> 100 µM,–,–
C=CC1CC12C(=O)C1OC2(C)C2C(=O)c3c(O)cccc3C(=O)C12 (centres undefined),21,45.1,–,–,87.8 µM,> 100 µM,> 100,> 100 µM,27.9,84.1,46.8,> 100 µM,54.9,> 100 µM,–,–,> 100,> 100 µM,> 100,53.4
CC12CCC(=O)N1c1cc([N+](=O)[O-])ccc1N2 (centres undefined),–,–,–,> 100 µM,–,> 100 µM,–,> 100 µM,–,–,–,> 100 µM,–,> 100 µM,–,> 100,–,–,–,–
C[C@@]1([C@H](OC(=O)c2cccc3ccccc23)C(N)=O)CO1,–,1.74,21.6 µM,> 100 µM,5.75 µM,> 37.5 µM,2.25,8.8 µM,0.54,4.8,0.36,3.95 µM,1.36,5.31 µM,–,–,3.95,24.9 µM,21.8,6.15
CC1OC(OC23C(=O)CC(C)(O)CC2(O)C=CC2=C3C(=O)c3ccc(C4CC(OC5CCC(OC6CC(O)C(O)C(C)O6)C(C)O5)C(O)C(C)O4)c(O)c3C2=O)CCC1O (centres undefined),–,–,15.9 µM and 2.86 µM,29.8 µM and 9.07 µM,50.8 µM and 22.8 µM,> 100 µM and 51.7 µM,–,32.2 µM and 32.4 µM,–,–,–,32.5 µM and 30.1 µM,–,32.3 µM and 26.7 µM,–,> 100,–,33.1 µM and 34.9 µM,–,–
C=CCNC(=O)ON1C(=O)CCC1=O,–,–,–,> 100 µM,–,> 100 µM,–,> 100 µM,–,–,–,> 100 µM,–,> 100 µM,–,–,–,> 100 µM,–,–
CO[C@H](C(=O)O[C@H]1C(=O)N2CCC3CCC1C32C)c1ccccc1 (some centres undefined),–,–,–,> 100 µM,–,> 100 µM,–,> 100 µM,–,–,–,> 100 µM,–,> 100 µM,–,> 100,–,> 100 µM,–,–
N#CC1=C(c2ccccc2)NN(Cc2ccccc2)C(c2ccc(Cl)cc2)CC1=O (centres undefined),–,–,–,–,–,72.8 µM,–,–,–,–,–,–,–,–,–,> 100,–,> 100 µM,–,–
O=C1C[C@@H]2[C@@H](C=CC23CC3)N1O,–,–,–,–,–,> 100 µM,–,> 100 µM,–,–,–,> 100 µM,–,> 100 µM,–,–,–,> 100 µM,–,–
COC1=CC(=O)c2c(O)c3c(c(O)c2C1=O)OC1(Oc2c(cc4cc(C)oc(=O)c4c2O)CC1O)C3O (centres undefined),–,> 100,–,> 100 µM,–,62.4 µM,–,> 100 µM,–,> 100,–,49.3 µM,–,> 100 µM,–,> 100,–,> 100 µM,–,–
CC(=O)CC(=O)ON(C)C(C)=O,–,–,–,> 100 µM,–,> 100 µM,–,> 100 µM,–,–,–,> 100 µM,–,> 100 µM,–,> 100,–,> 100 µM,–,–
COc1ccc(-c2c(-c3cc4c(c(OC)c3OC)OCO4)noc2N)cc1,–,–,0.184 µM,0.812 µM,0.661 µM,> 100 µM,2.69,> 100 µM,0.131,0.741,0.792,> 100 µM,0.231,3.24 µM,0.0376,69.8,2.43,> 100 µM,17,0.507
O=C1C2=C(C(=O)c3c(O)ccc(O)c31)N(c1cccnc1)Cc1ccccc1O2,0.398,1.15,–,–,2.6 µM,10.7 µM,0.182,0.398 µM,0.861,> 25.9,0.312,1.02 µM,0.26,0.771 µM,–,–,0.564,1.8 µM,1.24,0.392
